Reference: PMC314469, “Protein Interaction Networks by Proteome Peptide Scanning” (PLoS Biology, 2004)

Test system: Myo5 SH3 domain
Assay: SPOT analysis of cellulose-bound peptides (WISE), Myo5 SH3 domain (Dataset S4)
Assay type: binding, Saccharomyces cerevisiae
Details: for The normalized value in BLU units: Myo5 SH3 domain
[1] = SPOT analysis of cellulose-bound peptides probed with Myo5 SH3 domain, normalized value
[2] = SPOT analysis of membrane-synthesized peptides probed with Myo5 SH3 domain, normalized value
[3] = SPOT analysis of cellulose-bound 14-mer yeast proteome peptides, normalized value, mean where the peptide was synthesized more than once
[4] = SPOT analysis of membrane-bound peptides, normalized value (see methods)

Question: Which “The normalized value in BLU units (SPOT analysis, Myo5 SH3)” value [1] does the source give for GLLTYKGPKVPYQK here?
Answer: 150.1 BLU

Question: Which “The normalized value in BLU units (SPOT analysis, Myo5 SH3)” value [2] does the source give for YILPKTDPRSPYYI here?
Answer: 188.5 BLU

Question: For IMDAKFHPFKPQLF, which “The normalized value in BLU units” value [3] is on record?
Answer: 246.2 BLU

Question: How did the “The normalized value in BLU units” value [4] turn out when VPIDKKSPFYPGLD was run?
Answer: 150.4 BLU

Question: TNSVKATPVPPTLA was tested. Which “The normalized value in BLU units” value [4] did it give?
Answer: 168.0 BLU

Question: With AAVRLDQPILPQND as the sequence, how does the “The normalized value in BLU units (SPOT analysis, Myo5 SH3)” value [1] read?
Answer: 105.1 BLU

Question: SFVGFPKPLLPRNH was tested. Which “The normalized value in BLU units (SPOT analysis, Myo5 SH3)” value [1] did it give?
Answer: 205.1 BLU

Question: For DPSLYQIPEPPRGG, which “The normalized value in BLU units (SPOT analysis, Myo5 SH3)” value [1] is on record?
Answer: 98.8 BLU

Question: ALLIKTVPGFPLLE was tested. Which “The normalized value in BLU units (SPOT analysis, Myo5 SH3)” value [2] did it give?
Answer: 144.3 BLU

Question: NEHGMNAPSVPEFI was tested. Which “The normalized value in BLU units” value [3] did it give?
Answer: 344.1 BLU

Question: SPSQYQYPSQPALS was tested. Which “The normalized value in BLU units” value [3] did it give?
Answer: 65.2 BLU

Question: How did the “The normalized value in BLU units” value [3] turn out when KAIVWRLPKMPKIK was run?
Answer: 515.4 BLU

Question: KASSMPAPPPPPPP was tested. Which “The normalized value in BLU units” value [3] did it give?
Answer: 10514.9 BLU

Question: Which “The normalized value in BLU units” value [4] does the source give for RLLFRSLPPHPACL here?
Answer: 745.7 BLU

Question: How did the “The normalized value in BLU units” value [4] turn out when MDGIKELPEFPIKK was run?
Answer: 138.4 BLU

Question: Which “The normalized value in BLU units (SPOT analysis, Myo5 SH3)” value [2] does the source give for SILNRCVPKRPTID here?
Answer: 132.7 BLU

Question: Which “The normalized value in BLU units” value [4] does the source give for VEMKRKKPVRPVDI here?
Answer: 472.2 BLU

Question: How did the “The normalized value in BLU units” value [4] turn out when FLHSKKIPEVPQTD was run?
Answer: 287.9 BLU

Question: With WRWARDTPRAPGLH as the sequence, how does the “The normalized value in BLU units (SPOT analysis, Myo5 SH3)” value [2] read?
Answer: 2104.5 BLU

Question: With YEKALHFPAGPKST as the sequence, how does the “The normalized value in BLU units (SPOT analysis, Myo5 SH3)” value [1] read?
Answer: 147.4 BLU

Question: ELRTLFVPLIPSVT was tested. Which “The normalized value in BLU units” value [3] did it give?
Answer: 293.5 BLU

Question: With VFVEKSKPTYPGTE as the sequence, how does the “The normalized value in BLU units (SPOT analysis, Myo5 SH3)” value [2] read?
Answer: 96.4 BLU

Question: AKDYRFNPAIPLRI was tested. Which “The normalized value in BLU units (SPOT analysis, Myo5 SH3)” value [2] did it give?
Answer: 304.4 BLU

Question: Which “The normalized value in BLU units” value [4] does the source give for RMQQKNSPAFPTHS here?
Answer: 1283.9 BLU

Question: With VASSRTEPSTPSRP as the sequence, how does the “The normalized value in BLU units” value [4] read?
Answer: 178.5 BLU

Question: For SPKPFSKPQEPVKA, which “The normalized value in BLU units (SPOT analysis, Myo5 SH3)” value [1] is on record?
Answer: 359.1 BLU

Question: RRRTRLRPPTPLSQ was tested. Which “The normalized value in BLU units” value [4] did it give?
Answer: 1508.6 BLU

Question: Which “The normalized value in BLU units” value [3] does the source give for GPLLLTVPELPEAD here?
Answer: 162.3 BLU

Question: WLDEKRIPSTPIDY was tested. Which “The normalized value in BLU units (SPOT analysis, Myo5 SH3)” value [2] did it give?
Answer: 163.3 BLU

Question: For EFSPHSTPVTPRRL, which “The normalized value in BLU units” value [3] is on record?
Answer: 114.0 BLU

Question: How did the “The normalized value in BLU units (SPOT analysis, Myo5 SH3)” value [1] turn out when GFDGYMQPIIPGKT was run?
Answer: 158.4 BLU

Question: For RHSKKPAPPPPGMQ, which “The normalized value in BLU units (SPOT analysis, Myo5 SH3)” value [2] is on record?
Answer: 1938.6 BLU

Question: How did the “The normalized value in BLU units (SPOT analysis, Myo5 SH3)” value [1] turn out when IERVWNGPVEPSDE was run?
Answer: 180.2 BLU

Question: Which “The normalized value in BLU units” value [3] does the source give for GWSTYIPPFNPLEI here?
Answer: 113.7 BLU

Question: PEWRRPHPNIPDAK was tested. Which “The normalized value in BLU units” value [4] did it give?
Answer: 182.7 BLU

Question: For AALVKFVPSKPMCV, which “The normalized value in BLU units” value [4] is on record?
Answer: 280.9 BLU

Question: DPNAYMQPQVPVQM was tested. Which “The normalized value in BLU units (SPOT analysis, Myo5 SH3)” value [1] did it give?
Answer: 160.5 BLU

Question: With TLHELGVPITPIAF as the sequence, how does the “The normalized value in BLU units” value [3] read?
Answer: 118.6 BLU

Question: For NEGDLYPPEQPGVD, which “The normalized value in BLU units (SPOT analysis, Myo5 SH3)” value [1] is on record?
Answer: 80.1 BLU

Question: With ASKHKMFPFNPAKI as the sequence, how does the “The normalized value in BLU units” value [4] read?
Answer: 953.1 BLU

Question: With AERAKKAPSLPEGQ as the sequence, how does the “The normalized value in BLU units (SPOT analysis, Myo5 SH3)” value [2] read?
Answer: 389.2 BLU

Question: For KPSVMKLPPSPKQP, which “The normalized value in BLU units (SPOT analysis, Myo5 SH3)” value [1] is on record?
Answer: 380.5 BLU

Question: With QPAQLQEPQEPLST as the sequence, how does the “The normalized value in BLU units (SPOT analysis, Myo5 SH3)” value [1] read?
Answer: 125.9 BLU

Question: How did the “The normalized value in BLU units” value [4] turn out when CFKTKFAPEAPDLF was run?
Answer: 209.0 BLU
